Patent US20200087258A1, “INHIBITOR OF CITRATE TRANSPORTER AND THEIR USE IN THERAPY” (Eternygen GmbH, priority 2017, published 2020)

Assays:
[1] = target: T1, INDY (Homo sapiens, UniProt Q86YT5); experiment: 14C-citrate uptake in HepG2 cells endogenously expressing INDY (NaCT); assay type: cell-based; details: endogenous INDY
Method: The compound was obtained by screening of a library containing more than 50,000 lead-like compounds and fragments. The library was tested using a functional citrate uptake assay with HEK293 cells overexpressing recombinant human INDY. The following hit confirmation was conducted in the same assay system. To confirm the activity of selected compounds on the target INDY another cell assay was conducted. In this assay system citrate uptake was measured using HepG2 cells which endogenously express INDY. Furthermore selectivity of selected compounds was tested for two other transporters in different assay systems. The first transporter was the glutamate transporter GLT-1 tested in a glutamate uptake assays using HEK293 cells overexpressing recombinant human GLT-1. The second transporter was the glucose transporter GLUT1 tested in a glucose uptake assay using Huh-7 cells which endogenously express GLUT1. Compounds were considered to be selective with an at least 5-fold higher activity for INDY than for the other two transporters.
Cells were maintained in cell medium using cell culture grade flasks (CellSTACK Corning, 500 cm2 dishes or T175 depending on cell number). The selection antibiotic and G418 (800 μg/ml) was added during cultivation but not for seeding into assay plates. For splitting, cells were washed with PBS (w/o Ca2+, Mg2+, phenol red) and detached with Trypsin/EDTA. Throughout cultivation cells were kept sub-confluent. Detached cells (50,000 cells/well) were seeded in 96-well plates (white, clear bottom from Corning #655098) and incubated over night before usage in the assay. The following media were used. For HEK293 cells expressing INDY MEM (PAA)+10% FCS+1×P/S+2 mM L-Gln; for HEK293 cells expressing GLT-1 DMEM (Gibco)+10% FCS+400 µg/ml G418; for Huh7 cells DMEM (Gibco)+10% FCS+2 mM L-Gin (+1×P/S); for HepG2 cells MEM (PAA, Cat # E15-024)+10% FCS+2 mM L-Gin+1×NEAA+1 mM Na-Pyruvat
The following assay buffers for the particular uptake reaction were used. Citrate uptake buffer: 120 mM NaCl, 5.4 mM KCl, 0.8 mM MgSO4, 5 mM glucose, 1.8 mM CaCl2, 25 mM Hepes, 25 mM MES, pH 6.5. Glutamate uptake buffer: HBSS, 1 mM CaCl2, 1 mM MgCl2, 20 mM Hepes pH 7.4. Glucose uptake buffer: 25 mM Hepes+25 mM MES pH 7.4, 120 mM NaCl, 5.4 mM KCl, 1.8 mM CaCl2, 0.8 mM MgSO4.
INDY mediated citrate uptake was also determined in HepG2 cells. To determine the uptake of ^14C labelled citrate into cells, HepG2 cells endogenously expressing human NaCT were used. (Gopal et al. 2007 Am J Physiol Gastrointest Liver Physiol 292).
HepG2 cells were seeded into white clear-bottom 96-well plates (50,000/well) coated with collagen and incubated at 37° C. for 16-24 hours. After that plates were washed once with assay buffer using automated washing/LS 405 Selectors, BioTek ending with a buffer volume of 40 μl. Then 5 μl of compound solution in assay buffer was added and incubated for 5 min at 37° C. in cell incubator, HERA cell Heraeus. Afterwards 10 μl of substrate 14C-citrate (10 nM) were added and incubated for another 90 min at 37° C. in cell incubator, HERAcell. Then plates were washed 3× with 200 μl buffer and […] cell lysis induced by adding 50 μl ice-cold NaOH (100 mM). Plates were incubated for 25 min at RT on a plate shaker and afterwards 200 μl scintillation fluid was added and incubated for 15 min on a plate shaker at RT and for another 15 min without shaking at RT. Plates were measured using a TopCount system. As a positive control 5 mM citrate was applied. It is possible to use this assay also in analogy in a 384-well plate format.

[2] = target: T1, INDY; experiment: 14C-citrate uptake in HEK293 cells overexpressing recombinant human INDY (NaCT); assay type: cell-based; design: expressed in transfected cells; host or cells: HEK293
How it was run: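 HEK293 cells overexpressing human NaCT, 50,000/well, preincubated 5-30 min at 37 °C with compound in pH 6.5 Na+ buffer. 14C-citrate ([…]) uptake then ran 20-90 min at 37 °C, followed by ice-cold washes, NaOH lysis and scintillation counting. 10 mM citrate served as positive control.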

T1 sequence (Q86YT5 whole entry, the tested form may be a part): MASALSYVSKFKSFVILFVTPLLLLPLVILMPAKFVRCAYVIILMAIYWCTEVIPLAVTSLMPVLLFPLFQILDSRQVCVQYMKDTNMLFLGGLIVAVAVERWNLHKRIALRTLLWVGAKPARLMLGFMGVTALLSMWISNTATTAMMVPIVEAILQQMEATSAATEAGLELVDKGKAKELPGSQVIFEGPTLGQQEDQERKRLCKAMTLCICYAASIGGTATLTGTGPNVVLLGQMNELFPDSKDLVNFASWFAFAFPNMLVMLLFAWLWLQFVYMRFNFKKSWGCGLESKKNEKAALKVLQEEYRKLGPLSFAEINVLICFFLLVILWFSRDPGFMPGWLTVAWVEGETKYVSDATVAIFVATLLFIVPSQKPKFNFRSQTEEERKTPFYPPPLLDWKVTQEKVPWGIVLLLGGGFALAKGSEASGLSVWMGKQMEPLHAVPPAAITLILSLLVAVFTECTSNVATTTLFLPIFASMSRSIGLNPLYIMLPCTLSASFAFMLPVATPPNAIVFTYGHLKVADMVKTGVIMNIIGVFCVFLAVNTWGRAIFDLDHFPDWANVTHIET

Row | SMILES | IC50 [1] [µM] | IC50 [2] [µM]
1 | O=C(NCc1ccccc1F)C1CCN(S(=O)(=O)c2cccc(Cl)c2)CC1 [Example 59, 1-(3-chlorobenzenesulfonyl)-N-[(2-fluorophenyl)methyl]piperidine-4-carboxamide] | 0.9 | 1.1
2 | O=C(NCc1ccccn1)C1CCN(S(=O)(=O)c2cc(Cl)ccc2Cl)CC1 [Example 62, 1-(2,5-dichlorobenzenesulfonyl)-N-[(pyridin-2-yl)methyl]piperidine-4-carboxamide] | 4.6 | 8.2
3 | O=C(NCc1ccccn1)C1CCN(S(=O)(=O)c2ccc(Cl)c(Cl)c2)CC1 [Example 67, 1-(3,4-dichlorobenzenesulfonyl)-N-[(pyridin-2-yl)methyl]piperidine-4-carboxamide] | 7.2 | 18.3
4 | O=C(NCc1ccccc1CO)C1CCN(S(=O)(=O)/C=C/c2ccccc2)CC1 [Example 69, N-{[2-(hydroxymethyl)phenyl]methyl}-1-[(E)-2-phenylethenesulfonyl]pipendine-4-carboxamide] | 4.5 | 11.7
5 | O=C(NCc1ccccn1)C1CCN(S(=O)(=O)c2ccc(C(F)(F)F)cc2Cl)CC1 [Example 74, 1-[2-chloro-4-(trifluoromethyl)benzenesulfonyl]-N-[(pyridin-2-yl)methyl]piperidine-4-carboxamide] | 5.1 | 7.1
6 | O=C(NCc1ccccn1)C1CCN(S(=O)(=O)c2cccc(C(F)(F)F)c2)CC1 [Example 75, N-[(pyridin-2-yl)methyl]-1-[3-(trifluoromethyl)benzenesulfonyl]pipendine-4-carboxamide] | 3.3 | 5.7
7 | O=C(NCc1ccccn1)C1CCN(S(=O)(=O)c2cc(F)cc(Cl)c2)CC1 [Example 78, 1-(3-chloro-5-fluorobenzenesulfonyl)-N-[(pyridin-2-yl)methyl]pipendine-4-carboxamide] | 2.4 | 4.9
8 | O=C(NCc1ccccn1)C1CCN(S(=O)(=O)c2cc(F)cc(C(F)(F)F)c2)CC1 [Example 84, 1-[3-fluoro-5-(trifluoromethyl)benzenesulfonyl]-N-[(pyridin-2-yl)methyl]pipendine-4-carboxamide] | 2.2 | 4.3
9 | O=C(NCc1ccccn1)C1CCN(S(=O)(=O)c2cccc(S(F)(F)(F)(F)F)c2)CC1 [Example 85, 1-[3-(pentafluoro-lambda6-sulfanyl)benzenesulfonyl]-N-[(pyridin-2-yl)methyl]pipendine-4-carboxamide] | 3 | 6.4
10 | O=C(NCc1ccccn1)C1CCN(S(=O)(=O)c2ccc(I)cc2)CC1 [Example 95, 1-(4-iodobenzenesulfonyl)-N-[(pyridin-2-yl)methyl]piperidine-4-carboxamide] | 2.4 | 5.5
11 | O=C(NCc1ccccn1)C1CCN(S(=O)(=O)c2ccc(C3CC3)cc2)CC1 [Example 97, 1-(4-cyclopropylbenzenesulfonyl)-N-[(pyridin-2-yl)methyl]piperidine-4-carboxamide] | 3.8 | 9.2
12 | O=C(NCc1ccccn1)C1CCN(S(=O)(=O)c2ccc(CC(F)(F)F)cc2)CC1 [Example 99, N-[(pyridin-2-yl)methyl]-1-[4-(2,2,2-trifluoroethyl)benzenesulfonyl]piperidine-4-carboxamide] | 3.2 | 6.3
13 | O=C(NCc1cccc(O)c1)C1CCN(S(=O)(=O)c2cc(Cl)cc(Cl)c2)CC1 [Example 114, 1-(3,5-dichlorobenzenesulfonyl)-N-[(3-hydroxyphenyl)methyl]piperidine-4-carboxamide] | 0.6 | 0.7
14 | O=C(NCc1cccc(F)c1)C1CCN(S(=O)(=O)c2cc(Cl)cc(Cl)c2)CC1 [Example 115, 1-(3,5-dichlorobenzenesulfonyl)-N-[(3-fluorophenyl)methyl]piperidine-4-carboxamide] | 0.1 | 0.2
15 | O=C(NCc1ccccn1)C1CCN(S(=O)(=O)c2cc(Cl)cc(C3COC3)c2)CC1 [Example 116, 1-[3-chloro-5-(oxetan-3-yl)benzenesulfonyl]-N-[(pyridin-2-yl)methyl]piperidine-4-carboxamide] | 2.3 | 5.9
16 | O=C(NCc1cccc(CO)c1)C1CCN(S(=O)(=O)c2cc(Cl)cc(Cl)c2)CC1 [Example 117, 1-(3,5-dichlorobenzenesulfonyl)-N-{[3-(hydroxymethyl)phenyl]methyl}piperidine-4-carboxamide] | 0.5 | 0.8
17 | COC(=O)c1cccc(CNC(=O)C2CCN(S(=O)(=O)c3cc(Cl)cc(Cl)c3)CC2)c1 [Example 118, methyl 3-({[1-(3,5-dichlorobenzenesulfonyl)piperidin-4-yl]formamido}methyl)benzoate] | 4 | 5.7
18 | O=C(NCc1ccccn1)C1CN(S(=O)(=O)c2cc(Cl)cc(Cl)c2)C1 [Example 120, 1-(3,5-dichlorobenzenesulfonyl)-N-[(pyridin-2-yl)methyl]azetidine-3-carboxamide] | 2.8 | 7.5
19 | O=C(NCc1ccc(O)cc1)C1CCN(S(=O)(=O)c2cc(Cl)cc(Cl)c2)CC1 [Example 123, 1-(3,5-dichlorobenzenesulfonyl)-N-[(4-hydroxyphenyl)methyl]piperidine-4-carboxamide] | 1.3 | 2
20 | Nc1ccc(CNC(=O)C2CCN(S(=O)(=O)c3cc(Cl)cc(Cl)c3)CC2)cc1 [Example 124, N-[(4-aminophenyl)methyl]-1-(3,5-dichlorobenzenesulfonyl)piperidine-4-carboxamide] | 0.9 | 1.8
21 | O=C(NCc1ccccn1)C1CCN(S(=O)(=O)c2ccc(C3(C(F)(F)F)CC3)cc2)CC1 [Example 125, N-[(pyridin-2-yl)methyl]-1-{4-[1-(trifluoromethyl)cyclopropyl]benzenesulfonyl}piperidine-4-carboxamide] | 0.5 | 0.8
22 | O=C(NCc1ccccn1)C1CCN(S(=O)(=O)c2cc(Br)cc(C(F)(F)F)c2)CC1 [Example 126, 1-[3-bromo-5-(trifluoromethyl)benzenesulfonyl]-N-[(pyridin-2-yl)methyl]piperidine-4-carboxamide] | 0.4 | 0.5
23 | O=C(NCc1ccccn1)C1CCN(S(=O)(=O)c2cc(C(F)(F)F)cc(C(F)(F)F)c2)CC1 [Example 127, 1-[3,5-bis(trifluoromethyl)benzenesulfonyl]-N-[(pyridin-2-yl)methyl]piperidine-4-carboxamide] | 1.2 | 3.2
24 | O=C(NCc1ccccn1)C1CCN(S(=O)(=O)c2ccc(C3CCCC3)cc2)CC1 [Example 129, 1-(4-cyclopentylbenzenesulfonyl)-N-[(pyridin-2-yl)methyl]piperidine-4-carboxamide] | 7.4 | 1.6
25 | O=C(NCc1ccccn1)C1CCN(S(=O)(=O)c2cc(Cl)cc(C(F)(F)F)c2)CC1 [Example 130, 1-[3-chloro-5-(trifluoromethyl)benzenesulfonyl]-N-[(pyridin-2-yl)methyl]piperidine-4-carboxamide] | 0.5 | 0.7
26 | O=C(NCc1ccccn1)C1CCN(S(=O)(=O)c2ccc(C3CCCCC3)cc2)CC1 [Example 131, 1-(4-cyclohexylbenzenesulfonyl)-N-[(pyridin-2-yl)methyl]piperidine-4-carboxamide] | 4.7 | 6.1
